Test results as given in PubChem BioAssay (NCI).
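Step 1: Grow cells in 96-well plates. Step 2: Expose to compound for 48 hours at 5 concentrations. Step 3: Interpolate endpoints linearly; if unreached, use highest concentration. Here, GI50 denotes the concentration required for 50% inhibition of growth. TGI: total growth inhibition.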

What was measured:
Assay in all cases: growth of human tumour cells (NCI), 48 h
UO-31 renal = tested on: UO-31 renal
HCT-116 colon = tested on: HCT-116 colon
MCF7 breast = tested on: MCF7 breast
MDA-N = tested on: MDA-N
A498 renal = tested on: A498 renal
A549 NSCLC = tested on: A549 NSCLC
SN12C renal = tested on: SN12C renal
OVCAR-3 ovarian = tested on: OVCAR-3 ovarian
M14 melanoma = tested on: M14 melanoma
LOX IMVI melanoma = tested on: LOX IMVI melanoma
K-562 leukemia = tested on: K-562 leukemia
IGROV1 ovarian = tested on: IGROV1 ovarian

SMILES | TGI (UO-31 renal) | TGI (HCT-116 colon) | TGI (MCF7 breast) | TGI (MDA-N) | TGI (A498 renal) | TGI (A549 NSCLC) | TGI (SN12C renal) | TGI (OVCAR-3 ovarian) | TGI (M14 melanoma) | TGI (LOX IMVI melanoma) | TGI (K-562 leukemia) | TGI (IGROV1 ovarian) | GI50 (HCT-116 colon) | GI50 (MCF7 breast) | GI50 (MDA-N) | GI50 (A549 NSCLC) | GI50 (OVCAR-3 ovarian) | GI50 (K-562 leukemia) | GI50 (IGROV1 ovarian)
CC(=O)O[C@H]1[C@@H](OC2CCCC2(c2ccccc2)c2ccccc2)O[N+]([O-])=C[C@@]12COCc1cc3c(cc12)OCO3 (stereo partly specified) | 14.1 µM | > 47.5 µM | > 45.2 µM | > 100 µM | 7.67 µM | > 45.4 µM | > 39.6 µM | 4.71 µM | 37.2 µM | > 26.6 µM | > 23.7 µM | 22.2 µM | – | – | – | – | – | – | –
O=C1C=CC[C@H](/C=C/C[C@@H](O)C[C@H](O)/C=C/c2ccccc2)O1 | 25.9 µM | 17.4 µM | 24.8 µM | 24.9 µM | 27 µM | 33.5 µM | 26.9 µM | 23.7 µM | 27.4 µM | 13.3 µM | 42.3 µM | 28 µM | – | – | – | – | – | – | –
COc1ccc(C(=O)/C=C/c2ccc(OCC(=O)O)cc2)cc1 | > 100 µM | > 100 µM | > 100 µM | > 100 µM | > 100 µM | > 100 µM | > 100 µM | > 100 µM | > 100 µM | > 100 µM | > 100 µM | > 100 µM | – | – | – | – | – | – | –
O=c1oc2cccnc2n1CCN1CCN(c2ccc(Oc3ccccc3)cc2)CC1 | > 100 µM | > 100 µM | > 100 µM | > 100 µM | > 100 µM | > 100 µM | – | > 100 µM | > 100 µM | > 100 µM | > 100 µM | > 100 µM | – | – | – | – | – | – | –
COc1cc(/C=C/c2sc3ccccc3[n+]2C)ccc1N(C)C | – | 17.9 µM | 19.5 µM | 22.2 µM | > 100 µM | > 100 µM | 25.5 µM | 13 µM | 27.1 µM | 31.9 µM | 6.16 µM | 22 µM | 6.05 µM | 6.78 µM | 7.11 µM | 7.08 µM | 3.15 µM | 1.86 µM | 9.14 µM
O=C1OC2c3ccccc3C(=O)C2(c2ccccc2)N1c1ccccc1 (stereo unspecified) | > 200 µM | > 200 µM | > 200 µM | > 200 µM | > 200 µM | > 200 µM | > 200 µM | > 200 µM | > 200 µM | > 200 µM | > 200 µM | > 200 µM | – | – | – | – | – | – | –
COc1cc(CNC(=O)[C@H](Cc2ccc(O)cn2)NC(C)=O)cc(OC)c1 | > 100 µM | > 100 µM | > 100 µM | > 100 µM | > 100 µM | > 100 µM | > 100 µM | > 100 µM | > 100 µM | > 100 µM | > 100 µM | > 100 µM | – | – | – | – | – | – | –
O=C1N(CN2CCOCC2)CN(CN2CCOCC2)C(=O)N1Cc1ccccc1 | 68.6 µM | 54.4 µM | 82.6 µM | 33.3 µM | > 100 µM | > 100 µM | 48.6 µM | 59.7 µM | 33.3 µM | 33 µM | 51.4 µM | 64.9 µM | – | – | – | – | – | – | –
O=c1c2ccccc2c2c1c1c3ccccc3c(=O)c1c1c3ccccc3c(=O)c21 | > 100 µM | > 100 µM | > 100 µM | > 100 µM | > 100 µM | > 100 µM | > 100 µM | > 100 µM | > 100 µM | > 100 µM | > 100 µM | > 100 µM | – | – | – | – | – | – | –
COc1cc(S(=O)(=O)Nc2ccc(-c3csc(N4C(=O)C(C)SC4c4ccccc4O)n3)cc2)ccc1Cl (stereo unspecified) | > 100 µM | > 100 µM | > 100 µM | > 100 µM | > 100 µM | > 100 µM | > 100 µM | > 100 µM | > 100 µM | > 100 µM | > 100 µM | > 100 µM | – | – | – | – | – | – | –
CC(=O)O[C@H]1[C@H](OC(C)=O)[C@@H](CN=[N+]=[N-])OCO[C@@H]1CN=[N+]=[N-] | – | > 100 µM | > 100 µM | > 100 µM | > 100 µM | > 100 µM | > 100 µM | – | > 100 µM | > 100 µM | > 100 µM | > 100 µM | – | – | – | – | – | – | –
CC(=O)N1C(C(=O)NNc2ccccc2)CSC1c1ccccc1 (stereo unspecified) | > 100 µM | > 100 µM | > 100 µM | > 100 µM | > 100 µM | > 100 µM | > 100 µM | > 100 µM | > 100 µM | > 100 µM | > 100 µM | > 100 µM | – | – | – | – | – | – | –
COc1ccc(-c2oc3cc(OC)c(OC)c(OC)c3c(=O)c2OC)cc1OC | > 100 µM | > 100 µM | > 100 µM | > 100 µM | > 100 µM | > 100 µM | > 100 µM | > 100 µM | > 100 µM | > 100 µM | > 100 µM | > 100 µM | – | – | – | – | – | – | –
c1ccc(/N=N\Nc2ccc(-c3nc4ccccc4o3)cc2)nc1 | > 100 µM | > 100 µM | > 100 µM | > 100 µM | > 100 µM | > 100 µM | > 100 µM | > 100 µM | > 100 µM | > 100 µM | > 100 µM | > 100 µM | – | – | – | – | – | – | –
COP(=O)(OC)C(O)/C=C/c1ccco1 (stereo unspecified) | > 100 µM | > 100 µM | > 100 µM | > 100 µM | > 100 µM | > 100 µM | > 100 µM | > 100 µM | > 100 µM | > 100 µM | > 100 µM | > 100 µM | – | – | – | – | – | – | –
CC1C2(C)OC(=N)C(C#N)(C(c3ccco3)O2)C1(C#N)C#N (stereo unspecified) | > 100 µM | 67.1 µM | 51.4 µM | 43 µM | > 100 µM | > 100 µM | 30.4 µM | 47.9 µM | 35.9 µM | 40.5 µM | > 100 µM | > 100 µM | – | – | – | – | – | – | –
CC(=O)[O-].[Ni].c1ccc(/C(=N\Nc2ccccn2)c2ccccn2)cc1 | 18.8 µM | 18 µM | 30.7 µM | 21.1 µM | 36.3 µM | 49.2 µM | 29.3 µM | 19.5 µM | 17.8 µM | 22.3 µM | 28.1 µM | 29.7 µM | – | 6.58 µM | – | – | 0.0385 µM | – | –
COc1ccc(N=Nc2c(C)c(C#N)c(=S)n(C3OC(COC(C)=O)C(OC(C)=O)C(OC(C)=O)C3OC(C)=O)c2-c2ccccc2)cc1 (stereo unspecified) | 94.7 µM | 15.6 µM | 17.5 µM | 22.9 µM | 7.09 µM | 29.7 µM | 29.9 µM | 31.1 µM | 10.7 µM | 17.9 µM | > 100 µM | – | – | – | – | – | – | – | –
c1cc2cc(c1)CN1CCNCCN(CCNCC1)Cc1cccc(c1)CN1CCNCCN(CCNCC1)C2 | > 100 µM | > 100 µM | > 100 µM | > 100 µM | > 100 µM | > 100 µM | > 100 µM | > 100 µM | > 100 µM | > 100 µM | > 100 µM | > 100 µM | – | – | – | – | – | – | –
O=C(O)CSc1nnc(CCCCCCCCc2nnc(SCC(=O)O)o2)o1 | > 100 µM | > 100 µM | > 100 µM | > 100 µM | > 100 µM | > 100 µM | > 100 µM | – | > 100 µM | > 100 µM | > 100 µM | > 100 µM | – | – | – | – | – | – | –
CC(=O)N1CC[N+](C)(CCCCN2c3ccccc3Sc3cc(N=[N+]=[N-])ccc32)CC1 | > 100 µM | > 100 µM | > 100 µM | > 100 µM | > 100 µM | > 100 µM | > 100 µM | > 100 µM | > 100 µM | > 100 µM | > 100 µM | > 100 µM | – | – | – | – | – | – | –
O=c1oc2cc(O)ccc2cc1-c1nc2ccccc2s1 | 47.6 µM | 47 µM | 67 µM | 49.9 µM | 51.1 µM | 55.1 µM | 49 µM | 45.6 µM | 82.9 µM | 90.2 µM | > 100 µM | > 100 µM | – | – | – | – | – | – | –
BrCCC[P+](c1ccccc1)(c1ccccc1)c1ccccc1 | > 100 µM | 2.99 µM | > 100 µM | > 76.5 µM | > 100 µM | > 63.8 µM | > 100 µM | 38.6 µM | > 100 µM | 16.8 µM | > 100 µM | > 66.9 µM | – | – | – | – | – | – | –
NC(N)=NS(=O)(=O)c1ccc(Nc2c3ccccc3nc3c(C(=O)NC(CO)(CO)CO)cccc23)cc1 | 95.2 µM | – | 95.3 µM | > 100 µM | 72.6 µM | 38.2 µM | > 100 µM | > 100 µM | 68.3 µM | > 100 µM | > 100 µM | > 100 µM | – | – | – | – | – | – | –
O=C1/C(=C/c2ccc(Cl)cc2)N=C(c2ccccc2)N1C1Nc2cc3c(cc2S1)NC(N1C(=O)/C(=C/c2ccc(Cl)cc2)N=C1c1ccccc1)S3 (stereo unspecified) | > 100 µM | > 100 µM | > 100 µM | > 100 µM | > 100 µM | – | – | > 100 µM | > 100 µM | > 100 µM | > 100 µM | > 100 µM | – | – | – | – | – | – | –
O=c1[nH]c(=O)n(C2OC(CO)C(O)C2O)cc1OCCc1ccccc1 (stereo unspecified) | – | > 100 µM | > 100 µM | > 100 µM | > 100 µM | > 100 µM | > 100 µM | > 100 µM | > 100 µM | > 100 µM | – | > 100 µM | – | – | – | – | – | – | –
Cc1nc(N)c(N2CCN(Cc3ccccc3)CC2)c(=O)[nH]1 | > 100 µM | > 100 µM | > 100 µM | > 100 µM | > 100 µM | > 100 µM | > 100 µM | > 100 µM | > 100 µM | > 100 µM | > 100 µM | – | – | – | – | – | – | – | –
